Experimental data published in patent US20250367251A1, “SKELETON PROTECTION METHOD USING PEPTIDE” (Pell Bio-Med Technology Co., Ltd., priority 2024, published 2025).
Non-standard residues stand in square brackets, D forms with d. Residues, ends and D or L forms follow the SMILES beside them. pGlu = O=C1CC[C@@H](C(=O)O)N1

How the values were obtained:
[1] = system: SW982 synoviocytes; assay: Cell viability test (CCK-8) of SW982 synoviocytes; format: cell-based
Procedure: Owing to the restricted lifespan of primary rheumatoid arthritis fibroblast-like synoviocytes (RA-FLS), the fibroblast-like synoviocytes (FLS) cell line SW982 synoviocytes (hereinafter referred to as SW982 cells) are well accepted as a useful in vitro model for studying the pathogenesis of RA. In short, SW982 cells were seeded in a 96-well plate at a cell density of 6,000 cells per well. After the cells were treated in the following groups, the effect of each treatment group on the viability of SW982 cells was tested by means of the cell proliferation detection kit (cell counting kit-8, CCK8; Elabscience, Catalog No: E-CK-A361) according to the manufacturer's manual. Said treatment groups were as follows: (1) Different concentrations of the peptide of SEQ ID NO: 1: SW982 cells were treated with the L15 culture medium containing 10^−6, 10^−7, 10^−8, 10^−9 μM of the peptide of SEQ ID NO: 1 for 24 hours; (2) IL-1β stimulation group: SW982 cells were stimulated with the culture medium containing 1 ng/mL IL-1β for 24 hours to simulate the inflammatory synoviocytes of rheumatoid arthritis; (3) Co-treatment group: SW982 cells were treated with culture medium containing 10^−9 μM of the peptide of SEQ ID NO: 1 and 1 ng/mL of IL-1β for 72 hours. The SW982 cells in said treatment groups were all cultured in a carbon dioxide-free environment. In addition, SW982 cells were simply cultured in L15 medium for 24 hours, as the control group. This test uses 2-(2-methoxy-4-nitrophenyl)-3-(4-nitrophenyl)-5-(2,4-disulfophenyl)-2H-tetrazolium sodium salt (WST-8) from CCK-8 kit to react with the dehydrogenase in viable cells, so that the color of all treatment groups containing WST-8 turned from pink to orange. By detecting the absorbance value at 450 nm, the activity of dehydrogenase was determined to calculate the number of viable cells.

[2] = system: adjuvant-induced arthritis (AIA) model in C57BL/6 mice; assay: Adjuvant-induced arthritis (AIA) model, micro-CT of calcaneus bone (cortical surface, bone mineral density); format: in vivo
Description: Scientific reports, 7(1), 8870. […] Said mice were sacrificed on Day 45.
Each mouse was anesthetized (2.5% isoflurane, 1.0 L/min air) and the anesthetic gas was maintained during the scanning. The mouse was subjected to lay on one side on the carbon fiber half-tube bed while kept anesthetized in the micro-CT scanner (Skyscan 1076), and the right hindpaw was positioned on a cylindrical shape styrofoam holder. The mouse's paw was immobilized at the scanning midline of the scanner to eliminate any undesirable movement of the paw.
Settings for the micro-CT scanner (SkyScan-1076; Bruker micro CT, Belgium) were as follows: isotropic voxel size: 9 μm, tube voltage: 49 kV, current: 167 μA, Al filter: 0.5 mm, and 180° scan with 0.6° rotation step […] with frame averaging of 3. Subsequently, micro CT projections were back projection-reconstructed using the NRecon software (NReconServer64 bit, Bruker, MicroCT, Belgium) and volume-rendered and visualized in 3D with the CTVox software (Bruker, MicroCT, Belgium). The images of calcaneus bone were segmented and analyzed using the CTAn software (Bruker, MicroCT, Belgium).
GraphPad Prism 9.3.1 (GraphPad Software, USA) was used for statistical analyses and graphing. Data are presented as mean±standard deviation. The level of statistical significance was set at 5% (P<0.05) for all analyses. Data analysis of the indexes derived from the μCT images of calcaneus bone of mice was carried out, for example, One-way RM ANOVA (One-way Repeated Measures Analysis of Variance) with Tukey's post hoc test was used for data analysis of bone mineral density.
The observation time window of μCT scanning was set before AIA induction (Week 0), at the end of induction (Week 4), and after 1 or 2 weeks' treatment (i.e., Week 5 and Week 6). According to FIG. 1A and FIG. 1B, obviously, the surface integrity of the calcaneus bone was disturbed at Week 4 (the end of induction and prior to treatment), manifested as unevenness of the cortical bone (dashed line circle, Week 4 vs Week 0).

[3] = system: SW982 cells; assay: SW982 cell migration measurement (wound healing experiment); format: cell-based; conditions: 10^−7 to 10^−5 μM, 24 h
Description: It is known that fibroblast-like synoviocytes secrete inflammatory cytokines, chemokines, and matrix metalloproteinases (MMPs) and induce cell migration and invasion to damage joints and cartilage. We next examined the effect of the peptide of SEQ ID NO: 1 on SW982 cell migration through a conventional wound healing experiment. Specifically, a Culture-Insert 2 Well (ibidi) in which two cell culture reservoirs were separated by a 500 μm wall was placed on a cell culture plate surface. Both reservoirs were filled with cells suspension containing L15 culture medium and 4×10^4 SW982 cells to allow cell growth in the designated areas. After appropriate cell attachment of all SW982 cells, the Culture-Insert 2 Well was removed to create a cell-free gap of approximately 500 μm. The cell monolayer was washed with PBS buffer to remove detached cells and debris. The SW982 cells were incubated with the peptide of SEQ ID NO: 1 (10^−5, 10^−6, 10^−7 μM) in L15 culture medium or with L15 culture medium only (as control group) for 24 h in a carbon dioxide-free environment. By using direct microscopic visualization, a reference point at the bottom was created in each field, and the image of the remaining cell-free area in the identical field shot immediately after 24 h-treatment of the peptide of SEQ ID NO: 1 was measured to analyze cell migration and wound healing rates. […]

[4] = system: RAW264.7 cells; assay: Bone resorption assay (RANKL-induced, CaP-coated plate pit area); format: cell-based; conditions: 100 μM with 100 ng/ml RANKL, 7 days, p<0.001 vs RANKL group
Procedure: This test used RANKL (receptor activator of nuclear factor kappa-B ligand) as an inducer of osteoclastic differentiation to detect whether the peptide of SEQ ID NO: 1 could inhibit osteoclast resorptive function induced by RANKL in vitro, and comprised three groups: control group, RANKL group and treatment group.
First, RAW264.7 cells were seeded in a calcium phosphate (CaP)-coated 96-well with a density of 2×10^3 cells per well. RAW264.7 is a macrophage cell line, and RAW264.7 cells can differentiate into an osteoclast. The cells of all groups were cultivated for 7 days according to the manufacturer's instructions of Bone Resorption assay kit (Cosmo Bio). The differences between control group, RANKL group and treatment group were as follows: • (1) Control group: neither RANKL nor the peptide of SEQ ID NO: 1 was provided to RAW264.7 cells during a 7-day incubation period. • (2) RANKL group: RANKL in a concentration of 100 ng/ml was provided to RAW264.7 cells at Day 1 and incubated for 7 days. • (3) Treatment group: RANKL in a concentration of 100 ng/ml and the peptide of SEQ ID NO: 1 in a concentration of 100 μM were simultaneously provided to RAW264.7 cells at Day 1 and incubated for 7 days.
After the 7-day incubation period, all wells of all groups were washed with 0.2 ml to 0.5 ml of 5% sodium hypochlorite to remove the cells adhered to the surface. […]

[5] = Preliminary safety profile in AIA mice (body weight changes, observation); conditions: for body weight changes: oral once daily, after 1- or 2-week treatment (Week 5 or Week 6), compared with Week 4 or vehicle group, P>0.05
Procedure: This animal study was carried out according to the adjuvant-induced arthritis (AIA) model designed by Academia Sinica, Taipei, Taiwan. Specifically, arthritis induction was performed according to the method described in Gauldie, S. D., McQueen, D. S., Clarke, C. […] In short, this animal study comprised thirty C57BL/6 mice purchased from National Laboratory Animal Center, Taiwan, which were 8 weeks old with a body weight of about 20 to 25 grams. By using a 30-gauge needle mounted on a 100 μl Hamilton syringe, said mice were respectively injected with 5 μg Complete Freund's Adjuvant (CFA) (F5881, Sigma, USA) in the right ankle joint once a week for consecutive 4 times, wherein the first injection was carried out at week 0 (day 0), and said mice were anesthetized and maintained with 2% isoflurane during the injection. The AIA model can induce long-term inflammation and swelling in unilateral anterior ankle joints in C57BL/6 mice, thereby simulating the clinical long-term chronic pain of patients with rheumatoid arthritis.
After CFA induction, said mice were weekly weighted and scored with rheumatoid arthritis score estimation (data not shown) according to Hsieh, W. S., et al. (2017). […] The mice were assigned to 5 groups: (1) vehicle group, (2) P1 group (provided with 1 mg/kg/day peptide of SEQ ID NO: 1), (3) P3 group (provided with 3 mg/kg/day peptide of SEQ ID NO: 1), (4) P10 group (provided with 10 mg/kg/day peptide of SEQ ID NO: 1), and (5) T group (provided with 12.4 mg/kg/day tofacitinib). Said animal grouping was based on the rheumatoid arthritis scores by a random sampling mode. The drug administration from Week 4 (Day 28) to Week 6 (Day 42) was as follows: said mice received once-daily oral dosing (gavage) of 5 μL/g of body weight (bw) of a solution comprising: (1) the peptide of SEQ ID NO: 1 (1 mg/kg bw, 3 mg/kg bw or 10 mg/kg bw, dissolved in water) in P1, P3 and P10 group, respectively, (2) tofacitinib (12.4 mg/kg bw, dissolved with 0.5% carboxymethylcellulose aqueous solution) in T group, and (3) water in vehicle group. Said mice were sacrificed on Day 45. […]

**Q.** Which “proliferation of SW982 cells” value ([1]; 1 ng/mL, 24 h) does the source give for “IL-1β: cytokine used to stimulate SW982 cells to simulate the inflammatory synoviocytes of rheumatoid arthritis [reference compound]” here?
**A.** dramatically enhanced the proliferation of SW982 cells

**Q.** For `CC(C)[C@H](NC(=O)[C@H](C)NC(=O)[C@@H](NC(=O)[C@H](CCC(=O)O)NC(=O)[C@@H]1CCC(=O)N1)[C@@H](C)O)C(=O)N[C@@H](CO)C(=O)N[C@@H](CO)C(=O)N[C@@H](Cc1c[nH]cn1)C(=O)N[C@@H](CCC(=O)O)C(=O)N[C@@H](CCC(N)=O)C(=O)N[C@@H](CC(=O)O)C(=O)O` [peptide of SEQ ID NO: 1, Glp Glu Thr Ala Val Ser Ser His Glu Gln Asp] ([pGlu]ETAVSSHEQD-OH), which “bone contour / cortical surface of calcaneus bone (micro-CT)” value ([2]; 1 mg/kg oral once daily, Week 4 to Week 6) is on record?
**A.** no benefits in restoring the bone contour

**Q.** What about the “bone mineral density (BMD) of calcaneus bone” value ([2]; 1 mg/kg oral, 1- or 2-week treatment, Week 5/6 vs Week 4, P>0.05) of the same molecule?
**A.** no significant changes in BMD

**Q.** What about the “bone contour / cortical surface of calcaneus bone (micro-CT)” value ([2]; 3 mg/kg oral once daily, Week 4 to Week 6) of the same molecule?
**A.** no benefits in restoring the bone contour

**Q.** And the “bone mineral density (BMD) of calcaneus bone” value ([2]; 3 mg/kg oral, 1- or 2-week treatment, Week 5/6 vs Week 4, P>0.05)?
**A.** no significant changes in BMD

**Q.** And the “bone contour / cortical surface of calcaneus bone (micro-CT)” value ([2]; 10 mg/kg oral once daily for 2 weeks, Week 6 vs Week 4)?
**A.** much smoother cortical surfaces with fewer spiky projections of calcaneus bone

**Q.** And the “bone mineral density (BMD) of calcaneus bone” value ([2]; 10 mg/kg oral, after 1-week treatment)?
**A.** no increase in BMD

**Q.** And the “bone mineral density (BMD) of calcaneus bone” value ([2]; 10 mg/kg oral, after 2 week treatment, Week 6 vs Week 4, P<0.05)?
**A.** significant increases in BMD

**Q.** What about the “IL-1β-induced proliferation of SW982 cells” value ([1]; 10^−9 μM with 1 ng/mL IL-1β, 72 hours) of the same molecule?
**A.** significantly suppress the IL-1β-induced proliferation of SW982 cells

**Q.** And the “proliferation of SW982 cells” value ([1]; 10^−9 to 10^−6 μM, 24 hours)?
**A.** effectively inhibit the proliferation of SW982 cells

**Q.** And the “lateral migration of SW982 cells” value [3]?
**A.** significantly reduced the lateral migration of SW982 cells

**Q.** And the “pit area (calcium phosphate resorption) relative to RANKL group (one-fold)” value [4]?
**A.** about 0.5 fold

**Q.** What about the “observation of treated mice (signs of toxicity)” value ([5]; oral once daily Week 4 to Week 6) of the same molecule?
**A.** no signs of irritability, loss of vigor, or any skin or hair changes

**Q.** What about the body weight changes [5] of the same molecule?
**A.** no significant difference in body weight changes

**Q.** Which “bone mineral density (BMD) of calcaneus bone” value ([2]; 12.4 mg/kg/day oral, 1- or 2-week treatment, Week 5/6 vs Week 4, P>0.05) does the source give for `C[C@@H]1CCN(C(=O)CC#N)C[C@@H]1N(C)c1ncnc2[nH]ccc12` [Tofacitinib, reference compound] here?
**A.** neither 1- nor 2-week treatment of Tofacitinib was able to revert the BMD decrement

**Q.** What about the “bone contour / cortical surface of calcaneus bone (micro-CT)” value ([2]; 12.4 mg/kg/day oral, Week 6 vs Week 4) of the same molecule?
**A.** did not reduce the extent of surface roughness or the distortion of the bone contour

**Q.** What about the body weight changes [5] of the same molecule?
**A.** no significant difference in body weight changes
